For one data set, the system named is VEGF-A165b and panVEGF. Nature of the data set: STZ model of diabetes, retinal VEGF immunoblotting. It counts as in vivo, Norway Brown rats. To be noted: diabetic rats, bidaily eye drops for 28 days, Western blot. The method, then: To determine whether compound 1 could effectively switch the splicing of VEGF in a model of diabetes we used the STZ model of diabetes in Norway Brown rats. Diabetic animals were treated with twice daily eye drops of compound 1 for four weeks and killed, and the retina dissected. Protein was extracted and subjected to immunoblotting for VEGF-A165b and panVEGF.

For another data set, the system named is VEGF-A165a isoform. The experiment in a line: VEGF isoform specific ELISA in retinal pigmented epithelial cells. To be noted: FIG. 5. Type of data set: cell-based, human. The method, then: 96-well clear microplate (high sensitivity thermo immulon or costar 9018) were coated with 100 μL of 10 μg/mL VEGFxxxb or 0.25 μg/mL anti-hVEGF165a per well. The plate was sealed with parafilm and incubated overnight on the shaker at room temp. Each well was aspirated and washed with Wash Buffer (200 μL PBS-Tween 0.05%), […] for a total of three washes. After the last wash, remaining Wash Buffer was removed by inverting the plate and blotting it against clean paper towels. Plates were blocked by adding 100 μL of Reagent Diluent (1% BSA/PBS) to each well and incubated at room temp on a shaker for 2 hours. The aspiration/wash step was repeated. 100 μL of standards or samples in 1% BSA/PBS were added to each well, covered with parafilm and incubated 2 hours at room temperature. The aspiration/wash was repeated and 100 μL of 100 ng/mL of Detection Antibody (BAF293), diluted in Reagent Diluent, was added to each well which were covered with parafilm and incubated 2 hours at room temperature. The aspiration/wash was repeated and 100 μL of the working dilution of Streptavidin-HRP (1:200 dilution) was added to each well. […] The optical density of each well was measured immediately, using a microplate reader set to 450 nm.
To determine whether compound 1 could switch splicing of VEGF isoforms, VEGF was measured in retinal pigmented epithelial cells by isoform specific ELISA.
Background: In an ELISA, binding on a coated surface is turned into a signal by an enzyme label.

Data set [1] can be described thus: Rabbit pharmacokinetic study (eye drop). Type of data set: in vivo. To be noted: single 50 μL eye drop, 500 μg/mL, 1, 4, 12 or 24 hours. The method, then: Rabbits were treated with a single 50 μL eye drop of pazopanib at 80 μg/ml (maximum limit of solubility) and compound R at 500 μg/mL in the initial eye drop formulation containing 1% hydroxypropyl methyl cellulose, 0.2% tyloxapol, 3.4% dextrose, 0.006% benzalkonium chloride, and 0.025% ethylenediaminetetraacetic acid with 1% DMSO in PBS or with a single 50 μL eye drop of compound 1 at 500 μg/mL in the eye drop formulation containing 7% poly-oxyl-40-stearate and 4% dextrose in PBS. No difference between the eye drop formulations was confirmed in a separate study. Rabbits were killed at the indicated time points after the eye drop, blood and eyes taken, and the retina dissected from the choroid and sclera, incisions made, and laid out flat. Retina, RPE/choroid and sclera eye compartments were dissected into 7 different areas. All samples were weighed. Compound was extracted by reverse phase extraction from the retina and choroid/sclera samples and the plasma as above, and amount determined by mass spectrometry in different areas of the eye and in the blood. […]
To determine if the compounds could access the RPE of an animal with a large eye, a rabbit was exposed to 500 μg/mL of the compound as an eye drop and the concentrations in the retina, sclera, vitreous and other eye tissues (cornea); lens; RPE/choroid were measured. […]

The target of another data set is T1, SRPK1 (Homo sapiens, UniProt Q96SB4).
T1 construct: purchased MRC Dundee Kinase Centre (external assay service)
T1 sequence (Q96SB4 whole entry): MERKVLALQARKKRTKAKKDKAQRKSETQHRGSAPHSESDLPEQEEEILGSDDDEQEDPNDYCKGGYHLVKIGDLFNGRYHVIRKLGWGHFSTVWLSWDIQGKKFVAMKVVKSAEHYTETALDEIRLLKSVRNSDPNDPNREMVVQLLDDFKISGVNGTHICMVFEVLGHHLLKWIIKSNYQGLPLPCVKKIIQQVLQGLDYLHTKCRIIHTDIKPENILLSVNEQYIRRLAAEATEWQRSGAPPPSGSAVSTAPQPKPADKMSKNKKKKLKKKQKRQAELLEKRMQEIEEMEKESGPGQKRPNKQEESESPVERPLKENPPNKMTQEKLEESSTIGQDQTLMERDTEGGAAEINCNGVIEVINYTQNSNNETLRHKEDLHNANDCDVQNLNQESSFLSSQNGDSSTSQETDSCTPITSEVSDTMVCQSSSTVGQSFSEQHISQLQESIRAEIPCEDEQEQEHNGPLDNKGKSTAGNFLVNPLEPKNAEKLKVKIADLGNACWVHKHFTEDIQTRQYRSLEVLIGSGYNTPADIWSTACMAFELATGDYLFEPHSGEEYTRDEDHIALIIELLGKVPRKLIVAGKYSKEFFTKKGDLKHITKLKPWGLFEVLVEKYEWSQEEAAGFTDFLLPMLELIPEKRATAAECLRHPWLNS
Nature of the data set: In vitro kinase assay (radioactive filter binding, 33P ATP). It counts as biochemical. As for the experimental part: Kinase assays were carried out by the MRC Dundee Kinase Centre using a radioactive filter binding assay using ^33P ATP (Hastie, et al 2006. Nat Protoc. 2006; 1(2):968-71; Bain, et al 2007. Biochem J. 2007 Dec. 15; 408(3):297-315).

The nature of data set [2]: Porcine scleral permeability (modified Ussing chamber). To be noted: pig, pH 7.4, porcine excised eye tissue, 10 μg/mL compound on donor side. It counts as in vitro ADME. The method, then:
Scleral permeability was measured using a modified Ussing chamber assembly in the initial eye drop formulation containing 1% hydroxypropyl methyl cellulose, 0.2% tyloxapol, 3.4% dextrose, 0.006% benzalkonium chloride, and 0.025% ethylenediaminetetraacetic acid with 1% DMSO in PBS (pH 7.4). Porcine excised eye tissues were mounted in the chambers such that the episcleral side faced the donor chamber and the retinal side faced the receiver chamber. The chambers were filled with equal volumes of eye drop formulation, with (donor side) or without (receiver side) 10 μg/mL compound. After 24 hours tissue was removed from the chamber and the receiver side (“vitreous”) sampled. Tissue was dissected into sclera, choroid/RPE, and retina and homogenised. A tracer (SPHINX7; WO 2015/159103) was added, and tissue extracted by acetonitrile extraction as described in Batson et al (2017). Compounds were then analysed by mass spectrometry as described in Batson et al (2017).
To determine whether compounds could get across the sclera of a larger animal, porcine sclera was clamped between two chambers and compounds were added to the sclera with eye drop formulation added to the bottom chamber and compounds added to the top chamber. After 24 hours, the fluid from the bottom chamber (vitreous) and the retinal tissue was isolated and compounds purified by methanol or acetonitrile extraction and HPLC.

The subject of the next data set is pan-VEGF and VEGF-A165b. Nature of the data set: Non-human primate retinal VEGF immunoblotting. It counts as in vivo, Cynomolgus monkeys. To be noted: monkey. As for the experimental part:
Retina sections sampled from half of the eye were homogenised in NP40 lysis buffer as described in Gammons et al., 2013. The extracts were then immunoblotted using either rabbit anti-panVEGF (Santa Cruz A20 sc-152; 1:500) or mouse anti-VEGFi65b (MAB3045; R&D; 1:500).
To determine whether compound 1 could penetrate into the retina of primates we dosed cynomologous monkeys with 0.5, 1.0 or 1.5 mg/mL compound 1 twice a day for 21 days. […] Aqueous taps and plasma samples were taken during the treatment and compound 1 measured in the fluid. […] To determine if these doses were sufficient to inhibit angiogenic VEGF-A isoform expression, retinal tissue was subjected to immunoblotting using pan-VEGF or VEGF-A165b antibodies.
(In general: In western blotting, separated proteins are transferred to a membrane and probed.)

The mark [3] stands for this setting: 3 weeks bidaily dosing, FIG. 10b.

Usually melting point stands for the temperature, or range, at which the solid turns liquid. In general, IC50 refers to the concentration at which inhibition is half-maximal. The term Papp denotes the rate of passage across a membrane or cell layer, normalised by area and donor concentration.

The compound `Cn1ccc(CN2CCN(c3ccc(C(F)(F)F)cc3NC(=O)c3ccc(C4CCOCC4)o3)CC2)n1` [Compound 1, N-(2-(4-((1-methyl-1H-pyrazol-3-yl)methyl)piperazin-1-yl)-5-(trifluoromethyl)phenyl)-5-(tetrahydro-2H-pyran-4-yl)furan-2-carboxamide] yielded a melting point of 148 to 150 °C. Besides, in the data set on VEGF-A165b and panVEGF, the “Proportion of VEGF-A165b to total VEGF” value is “increased”, the “Total VEGF in retina” value was “total VEGF is reduced” and the VEGF-A165b in retina entry is “VEGF-A165b is increased”. In the data set on VEGF-A165a isoform, the “Expression of pro-angiogenic VEGF-A165a isoform” value is listed as “reduces expression of the pro-angiogenic VEGF-A165a isoform in a dose dependent manner”. In data set [1], the “Retinal penetration after eye drop” value is “better sustained penetration (e.g. at 4 hrs) than chemically similar molecules such as Compound R”. Also, the IC50 on SRPK1 came to 4 nM. Besides, in data set [2], the Papp at 24 h, 10 μg/mL is 0.067 ×10⁻⁶ cm/s. Also, in the data set with pan-VEGF and VEGF-A165b (setting [3]), the “Total VEGF levels in retina” value is reported as “total VEGF levels are decreased”; the “VEGF-A165b levels in retina” value is “do not decrease and increase at 1 mg/ml”. Also, the “Ratio of angiogenic to anti-angiogenic VEGF-A in retina” value in the data set on pan-VEGF and VEGF-A165b (FIG. 10c) is “decreases”.

Values taken from patent US12024504B2, “1-methyl-1H-pyrazol-3-yl derivatives for use in the treatment of neovascular diseases” (EXONATE LIMITED, priority 2021, dated 2024).
